Test results reported in US8546348B2, “Upregulation of opioid receptors for management” (The Board of Regents of the University of Texas System, priority 2003, dated 2013).
Where “and” joins values, the source holds several entries; their conditions need not be identical. Equal entries are not always repeated. Where two headings read alike, the source gives them in different places.

Key:
[1] = tested on: high-threshold voltage-dependent Ca^2+ channels in DRG neurons; experiment: Perforated patch recording of DAMGO block of Ba2+ currents in cultured DRG neurons; type: cell-based, rat; conditions: for IC50: read-out: apparent affinity for DAMGO inhibition (IC50)
Description: Cells were superfused (2 ml/min) at 23-24° C. with external solution containing 130 mM tetraethylammonium (“TEA”) chloride, 5 mM CsCl, 1.5 mM BaCl2, 1 mM MgCl2, 10 mM Hepes, and 10 mM glucose (pH 7.2, adjusted with TEA-OH; osmolarity, 300 mosM). Patch electrodes (resistance, 2.2-3.5 MΩ) were filled with internal solution containing 100 mM CsMeSO3, 40 mM CsCl, 10 mM Hepes, and 300 μg/ml amphotericin B (pH=7.3 adjusted with CsOH, 320 mosM). The currents were filtered at 2-5 kHz and sampled at 100 μs per point. [D-Ala^2,N-MePhe^4,Gly^5-ol]enkephalin (“DAMGO”) was pressure delivered to the recorded cells through a drug applicator (8).
All data were expressed as mean±SEM. Paw withdrawal latencies obtained from different rats were averaged. Changes before and after morphine treatment within one rat group were analyzed with one-way ANOVA followed by post hoc Newman-Keuls analysis. Antinociceptive responses were expressed as maximum possible effect (“MPE”) by using the relation MPE=(postdrug PWL−baseline PWL)/(cutoff PWL−baseline PWL)×100. Dose-response curves were plotted as MPE vs. dose and fitted with the logistic equation. The doses estimated to produce 50% MPE, A50, and 95% confidence intervals were determined. The dose-response curves for DAMGO in current measurements were fitted with the Hill equation, i.e., response=(max−min)×[IC50/(IC50^n+dose^n)]+min, where max and min are maximal and minimal responses, IC50 is the dose for 50% of the block, and n is the Hill coefficient. The 95% confidence band analysis was used to evaluate the significance of the change in the IC50 and maximal block. To assess the significance of changes between two means, the Student's t test was used. A p<0.05 was considered significant.
It is well established that μ-opioids inhibit high-threshold voltage-dependent Ca^2+ currents in DRG neurons. […] Seven days after the infection, perforated patch whole-cell recordings were performed on the cells. External Ca^2+ was replaced by Ba^2+ to avoid rapid rundown of current responses.

[2] = tested on: spared nerve injury (SNI) rats; experiment: Mechanical allodynia (von Frey) in SNI rats treated with rAAV-δOR, intrathecal deltorphin or morphine; type: in vivo, rat
Description: Similar method as described before was used to induce inflammation To produce the nerve-injury in the rat paw, spared nerve injury (SNI) in rats was generated by transecting the sural and common peroneal sciatic nerves in the left rat leg while leaving the tibal nerve intact. To induce inflammation in the trigeminal nerve innervated areas, rats were lightly anesthetized with pentobarbital. CFA (10-50 μl) was injected into the rat temporomandibular joint (TMJ) 3-4 weeks after infection of rAAV-dOR. Behavioral experiments were performed 5-14 days after the CFA injection. To induce spare nerve injury in the trigeminal nerve, the infraorbital nerve branch of the maxillary nerve was ligated and the ophthalmic and mandibular nerves were left intact.
δ-opioid receptor expression was enhanced in dorsal root ganglia (DRGs) by injecting rAAV-dOR into the ganglion or into the sciatic nerve or by injecting dOR-FLAG DNA intrathecally. The δ-OR receptor expression was enhanced in the trigeminal ganglon by injecting rAAV-dOR into the trigeminal ganglion or into the maxillary nerve.
Three to four weeks later, the effects of morphine or other analgesic drugs on mechanical allodynia in SNI rats were determined behaviorally. Rat hindpaw withdrawal (PW) thresholds in response to stimulation of Von Frey filaments were measured. Each test consisted of applications of a series of von Frey filaments (ranging from 0.4 to 15.0 g) to the lateral plantar surface of the tested paw until it withdrew or for a maximum of 60 s. To avoid injury during tests, the cutoff strength of the von Frey filament was 15 g. The up and down method described by Chaplan et al. (12) was used to determine the PW threshold. Mechanical threshold or the maximum possible effect (MPE), i.e., ((test−min)/(max−min)]×100%, was used to calculate morphine mechanical analgesic effects.

[3] = tested on: injured rats (sciatic nerve ligation); conditions: Kabli and Cahill; cited from earlier work
[4] = tested on: rats (thermal hyperalgesia, CFA); experiment: Paw withdrawal latency to radiant heat, intrathecal morphine, rats with rAAV injected into the sciatic nerve; conditions: rat, in vivo
[5] = tested on: rats (thermal nociceptive responses); experiment: Paw withdrawal latency to radiant heat, s.c. morphine, rats with rAAV injected into L4-L5 ganglia; type: in vivo, rat; conditions: 4 mg/kg morphine, non-CFA rats
[6] = tested on: spared nerve injury (SNI) rats; experiment: Mechanical allodynia (von Frey) in spared nerve injury rats, intrathecal morphine, rAAV-μOR; type: in vivo, rat; conditions: intrathecal 1-10 μg, SNI rats without rAAV
[7] = tested on: rats (inflammatory pain, CFA); experiment: Morphine antinociception (MPE, radiant heat) in CFA rats after DRG or sciatic nerve injection of rAAV; type: in vivo, rat; conditions: s.c. morphine, rAAV injected into DRGs

Structure (SMILES) | IC50 ([1]; rAAV-EGFP cells) [nM] | percentage of cells responded to DAMGO inhibition ([1]; rAAV-EGFP-treated cells) [%] | maximal block of Ba2+ currents ([1]; rAAV-μOR cells, Hill fit) | IC50 ([1]; rAAV-μOR cells) [nM] | percentage of cells responded to DAMGO inhibition ([1]; rAAV-μOR-treated DRG neurons) [%] | percentage of cells responded to DAMGO inhibition ([1]; untreated cells) [%] | IC50 ([1]; untreated cells) [nM] | reduction of allodynic responses ([2]; SNI rats) | reduction of allodynic responses ([2]; SNI rats, listed as Deltorphin) | reduction of allodynic responses ([2]; rAAV-δOR treated SNI rats) | time for which the drug is effective in reducing allodynic responses [3] [days] | time after which the effect dissipated [4] [min] | time at which MPE peaked [4] [min] | time at which antinociceptive effects reached a maximum [5] [min] | time in which antinociceptive effects dissipated [5] [min] | relief of mechanical allodynia [6] | time at which MPEs peaked [7] [min] | time within which MPEs dissipated [7]
C[C@@H](NC(=O)[C@@H](N)Cc1ccc(O)cc1)C(=O)NCC(=O)N(C)[C@@H](Cc1ccccc1)C(=O)NCCO [DAMGO, [D-Ala^2,N-MePhe^4,Gly^5-ol]enkephalin] | 530 ± 30 | 54.5 | 31.63% and 31.63±0.03% | 170 ± 60 | 89.2 | 57.1 | 640 ± 190 |  |  |  |  |  |  |  |  |  |  | 
CC(C)[C@H](NC(=O)[C@H](CCC(=O)O)NC(=O)[C@H](Cc1ccccc1)NC(=O)[C@@H](C)NC(=O)[C@@H](N)Cc1ccc(O)cc1)C(=O)N[C@H](C(=O)NCC(=O)O)C(C)C [deltorphin] |  |  |  |  |  |  |  | rather ineffective | ineffective | became effective | 21 |  |  |  |  |  |  | 
CN1CC[C@]23c4c5ccc(O)c4O[C@H]2[C@@H](O)C=C[C@H]3[C@H]1C5 [morphine] |  |  |  |  |  |  |  |  |  |  | 14 | 50 | 15 to 20 | 30 to 40 | 80 to 90 | not effective | 30 to 40 | 100 to 120 min and 100 min
